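Compound exposure: 48 hours, 5 concentrations, 96-well plates. GI50 is the concentration that inhibits growth by half. Definition used: TGI = concentration required for complete inhibition of growth.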
Columns and labels:
Assay in all cases: NCI-60 cell line screen, 48 h
[1] = test system: UO-31 renal
[2] = test system: ACHN renal
[3] = test system: HOP-92 NSCLC
[4] = test system: T-47D breast
[5] = test system: K-562 leukemia
[6] = test system: OVCAR-8 ovarian
[7] = test system: MOLT-4 leukemia
[8] = test system: CCRF-CEM leukemia
[9] = test system: RPMI-8226 leukemia
[10] = test system: KM12 colon
[11] = test system: OVCAR-5 ovarian
[12] = test system: COLO 205 colon
[13] = test system: HL-60(TB) leukemia
[14] = test system: UACC-257 melanoma
[15] = test system: U251 CNS
[16] = test system: SN12C renal
[17] = test system: LOX IMVI melanoma
[18] = test system: MALME-3M melanoma
[19] = test system: HT29 colon
[20] = test system: SW-620 colon
[21] = test system: SF-268 CNS
[22] = test system: 786-0 renal
[23] = test system: NCI-H460 lung
[24] = test system: SK-OV-3 ovarian
[25] = test system: DU-145 prostate
[26] = test system: SF-539 CNS
[27] = test system: MDA-MB-231 breast
[28] = test system: OVCAR-3 ovarian
[29] = test system: SK-MEL-2 melanoma
[30] = test system: PC-3 prostate
[31] = test system: SF-295 CNS
[32] = test system: NCI-H23 lung
[33] = test system: OVCAR-4 ovarian
[34] = test system: HS 578T breast
[35] = test system: RXF 393 renal
[36] = test system: SK-MEL-28 melanoma
[37] = test system: NCI-H522 lung
[38] = test system: MDA-MB-435
[39] = test system: BT-549 breast
[40] = test system: CAKI-1 renal
[41] = test system: HCT-15 colon
[42] = test system: IGROV1 ovarian
[43] = test system: NCI-H226 lung
[44] = test system: SNB-75 CNS
[45] = test system: UACC-62 melanoma
[46] = test system: SK-MEL-5 melanoma
[47] = test system: MCF7 breast
[48] = test system: NCI/ADR-RES ovarian
[49] = test system: HCC-2998 colon
[50] = test system: TK-10 renal
[51] = test system: HCT-116 colon
[52] = test system: A549 NSCLC
[53] = test system: HOP-62 NSCLC
[54] = test system: SNB-19 CNS

`O=C1c2ccccc2-c2nnc(-c3ccc(Br)cc3)cc21` showed a GI50 [1] of over 100 µM, a TGI [1] of over 100 µM and a GI50 [2] of over 100 µM. It also gave a TGI [2] of over 100 µM, a GI50 [3] of over 100 µM and a TGI [3] of over 100 µM. For the same compound, the GI50 [4] was 48.8 µM, the TGI [4] was over 100 µM and the GI50 [5] was over 100 µM. The TGI [5] was over 100 µM, the GI50 [6] was over 100 µM and the TGI [6] was over 100 µM. The GI50 [7] was over 100 µM, the TGI [7] was over 100 µM and the GI50 [8] was over 100 µM. For the same compound, the TGI [8] was over 100 µM, the GI50 [9] was over 100 µM and the TGI [9] was over 100 µM. It also gave a GI50 [10] of over 100 µM, a TGI [10] of over 100 µM and a GI50 [11] of over 100 µM. The TGI [11] was over 100 µM, the GI50 [12] was over 100 µM and the TGI [12] was over 100 µM. The GI50 [13] was over 100 µM, the TGI [13] was over 100 µM and the GI50 [14] was over 100 µM. The TGI [14] was over 100 µM, the GI50 [15] was over 100 µM and the TGI [15] was over 100 µM. It also gave a GI50 [16] of over 100 µM, a TGI [16] of over 100 µM and a GI50 [17] of over 100 µM. It also gave a TGI [17] of over 100 µM, a GI50 [18] of over 100 µM and a TGI [18] of over 100 µM. For the same compound, the GI50 [19] was over 100 µM, the TGI [19] was over 100 µM and the GI50 [20] was over 100 µM. For the same compound, the TGI [20] was over 100 µM, the GI50 [21] was over 100 µM and the TGI [21] was over 100 µM. The GI50 [22] was over 100 µM, the TGI [22] was over 100 µM and the GI50 [23] was over 100 µM. The TGI [23] was over 100 µM, the GI50 [24] was over 100 µM and the TGI [24] was over 100 µM. It also gave a GI50 [25] of over 100 µM, a TGI [25] of over 100 µM and a GI50 [26] of over 100 µM. It also gave a TGI [26] of over 100 µM, a GI50 [27] of over 100 µM and a TGI [27] of over 100 µM. It also gave a GI50 [28] of over 100 µM, a TGI [28] of over 100 µM and a GI50 [29] of over 100 µM. The TGI [29] was over 100 µM, the GI50 [30] was over 100 µM and the TGI [30] was over 100 µM. For the same compound, the GI50 [31] was over 100 µM, the TGI [31] was over 100 µM and the GI50 [32] was over 100 µM. For the same compound, the TGI [32] was over 100 µM, the GI50 [33] was over 100 µM and the TGI [33] was over 100 µM. The GI50 [34] was over 100 µM, the TGI [34] was over 100 µM and the GI50 [35] was over 100 µM. It also gave a TGI [35] of over 100 µM, a GI50 [36] of over 100 µM and a TGI [36] of over 100 µM. It also gave a GI50 [37] of over 100 µM, a TGI [37] of over 100 µM and a GI50 [38] of over 100 µM. For the same compound, the TGI [38] was over 100 µM, the GI50 [39] was over 100 µM and the TGI [39] was over 100 µM. For the same compound, the GI50 [40] was over 100 µM, the TGI [40] was over 100 µM and the GI50 [41] was over 100 µM. It also gave a TGI [41] of over 100 µM, a GI50 [42] of over 100 µM and a TGI [42] of over 100 µM. It also gave a GI50 [43] of over 100 µM, a TGI [43] of over 100 µM and a GI50 [44] of over 100 µM. It also gave a TGI [44] of over 100 µM, a GI50 [45] of over 100 µM and a TGI [45] of over 100 µM. For the same compound, the GI50 [46] was over 100 µM, the TGI [46] was over 100 µM and the GI50 [47] was over 100 µM. For the same compound, the TGI [47] was over 100 µM, the GI50 [48] was over 100 µM and the TGI [48] was over 100 µM. For the same compound, the GI50 [49] was over 100 µM, the TGI [49] was over 100 µM and the GI50 [50] was over 100 µM. It also gave a TGI [50] of over 100 µM, a GI50 [51] of over 100 µM and a TGI [51] of over 100 µM. The GI50 [52] was over 100 µM, the TGI [52] was over 100 µM and the GI50 [53] was over 100 µM. For the same compound, the TGI [53] was over 100 µM, the GI50 [54] was over 100 µM and the TGI [54] was over 100 µM.
